The record followed here is US20110190503A1, “Thiazolopyridin-2-yloxy-phenyl and thiazolopyrazin-2-yloxy-phenyl amines as modulators of leukotriene A4 hydrolase” (Janssen Pharmaceutical NV, priority 2008, published 2011).

Structures can show the parent of a compound that is named as a salt.

The assay addresses T1, recombinant human LTA4 hydrolase (rhLTA4H) (Homo sapiens, UniProt P09960).
T1 construct: made in house; host or cells: Spodoptera frugiperda (Sf-9) cells, recombinant baculovirus (pFastBac1)
T1 sequence (P09960 1-611): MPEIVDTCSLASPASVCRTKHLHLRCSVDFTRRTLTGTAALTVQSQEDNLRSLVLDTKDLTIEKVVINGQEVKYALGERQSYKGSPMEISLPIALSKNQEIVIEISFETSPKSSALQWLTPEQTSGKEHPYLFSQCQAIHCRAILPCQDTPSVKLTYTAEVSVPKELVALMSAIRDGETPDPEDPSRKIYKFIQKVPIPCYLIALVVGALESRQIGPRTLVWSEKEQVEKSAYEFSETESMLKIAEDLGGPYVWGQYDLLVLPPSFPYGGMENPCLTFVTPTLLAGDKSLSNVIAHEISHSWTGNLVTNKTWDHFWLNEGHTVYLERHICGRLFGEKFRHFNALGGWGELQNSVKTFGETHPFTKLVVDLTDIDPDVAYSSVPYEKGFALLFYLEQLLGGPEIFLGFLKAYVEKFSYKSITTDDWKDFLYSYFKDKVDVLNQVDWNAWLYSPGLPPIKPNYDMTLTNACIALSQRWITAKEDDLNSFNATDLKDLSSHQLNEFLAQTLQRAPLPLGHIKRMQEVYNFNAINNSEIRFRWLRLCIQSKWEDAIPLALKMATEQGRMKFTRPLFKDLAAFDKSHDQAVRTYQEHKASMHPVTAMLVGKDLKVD
Briefly: Recombinant human LTA4 hydrolase assay for LTA4 hydrolase inhibitor activity. In kind it is biochemical. Particulars: rhLTA4H, LTA4 substrate, LTB4 by immunoassay; single determination or average; read-out: IC50. An outline of the steps: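 Recombinant human LTA4H from baculovirus-infected Sf-9 cells (10 ng) pre-incubated 10 min at rt with compound (10% DMSO in dilutions), then reacted with free-acid LTA4 for 30 min at rt. LTB4 measured by ELISA; IC50 by nonlinear regression. Values are single determinations or averages.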
The IC50 is the concentration that inhibits the measured activity by half. Take `CCN(CCc1ccc(Oc2nc3cccnc3s2)cc1)C1CC1` [Example 174, N-Ethyl-N-{2-[4-([1,3]thiazolo[5,4-b]pyridin-2-yloxy)phenyl]ethyl}cyclopropanamine]: the concentration for half-maximal inhibition (IC50) was 94 nM.
`NC(=O)N1[C@@H]2CC[C@H]1CN(CCc1ccc(Oc3nc4ncccc4s3)cc1)C2` [Example 210, meso-3-{2-[4-([1,3]Thiazolo[4,5-b]pyridin-2-yloxy)phenyl]ethyl}-3,8-diazabicyclo[3.2.1]octane-8-carboxamide hydrochloride]: the IC50 worked out at 6 nM.
As for `FC1CCN(CCc2ccc(Oc3nc4nccnc4s3)cc2)CC1` [Example 180, 2-({4-[2-(4-Fluoropiperidin-1-yl)ethyl]phenyl}oxy)[1,3]thiazolo[4,5-b]pyrazine], the figure is 71 nM; as for `NC(=O)N1[C@@H]2CC[C@H]1CN(Cc1ccc(Oc3nc4ncccc4s3)cc1)C2` [Example 171, meso-3-{[4-([1,3]Thiazolo[4,5-b]pyridin-2-yloxy)phenyl]methyl}-3,8-diazabicyclo[3.2.1]octane-8-carboxamide], 42 nM.
The figure for `NC(=O)N1[C@@H]2CC[C@H]1C[C@H](NCc1ccc(Oc3nc4cccnc4s3)cc1)C2` [Example 201, meso-(3-exo)-3-{[4-([1,3]Thiazolo[5,4-b]pyridin-2-yloxy)benzyl]amino}-8-azabicyclo[3.2.1]octane-8-carboxamide] is 891 nM; for `O=C1CCCN1C1CCN(CCOc2ccc(Oc3nc4cccnc4s3)cc2)CC1` [Example 43, 1-(1-{2-[4-([1,3]Thiazolo[5,4-b]pyridin-2-yloxy)phenoxy]ethyl}piperidin-4-yl)pyrrolidin-2-one] it is 140 nM.
Take `Cc1cnc2nc(Oc3ccc(CN4CCC(C(=O)N(C)C)CC4)cc3)sc2c1` [Example 172, N,N-Dimethyl-1-({4-[(6-methyl[1,3]thiazolo[4,5-b]pyridin-2-yl)oxy]phenyl}methyl)piperidine-4-carboxamide]: the IC50 was determined as 26 nM.
The figure for `COc1ccccc1C1CCN(CCOc2ccc(Oc3nc4cccnc4s3)cc2)CC1` [Example 41, 2-(4-{2-[4-(2-Methoxyphenyl)piperidin-1-yl]ethoxy}phenoxy)[1,3]thiazolo[5,4-b]pyridine] is 340 nM; for `O=C(c1ccco1)N1CCN(CCOc2ccc(Oc3nc4ncc(Cl)cc4s3)cc2)CC1` [Example 147, 6-Chloro-2-(4-{2-[4-(furan-2-ylcarbonyl)piperazin-1-yl]ethoxy}phenoxy)[1,3]thiazolo[4,5-b]pyridine] it is 252 nM.
As for `c1cnc2nc(Oc3ccc(OCCNC4CC4)cc3)sc2c1` [Example 139, N-{2-[4-([1,3]Thiazolo[4,5-b]pyridin-2-yloxy)phenoxy]ethyl}cyclopropanamine], the figure is 41 nM; as for `NC(=O)N1C[C@H]2C[C@@H]1CN2Cc1ccc(Oc2nc3ncc(Cl)cc3s2)cc1` [Example 191, (1R,4R)-5-({4-[(6-Chloro[1,3]thiazolo[4,5-b]pyridin-2-yl)oxy]phenyl}methyl)-2,5-diazabicyclo[2.2.1]heptane-2-carboxamide], 72 nM.
The figure for `Cc1ccnc2nc(Oc3ccc(OCCN4CCC(O)(c5ccccn5)CC4)cc3)sc12` [Example 158, 1-(2-{4-[(7-Methyl[1,3]thiazolo[4,5-b]pyridin-2-yl)oxy]phenoxy}ethyl)-4-pyridin-2-ylpiperidin-4-ol] is 194 nM; for `CC(=O)N1[C@@H]2CC[C@H]1C[C@H](NCc1ccc(Oc3nc4ncc(C)cc4s3)cc1)C2` [Example 181, meso-(3-exo)-8-Acetyl-N-({4-[(6-methyl[1,3]thiazolo[4,5-b]pyridin-2-yl)oxy]phenyl}methyl)-8-azabicyclo[3.2.1]octan-3-amine] it is 332 nM; for `c1cc2sc(Oc3ccc(CN4CCCCC4)cc3)nc2cn1` [Example 133, 2-[4-(Piperidin-1-ylmethyl)phenoxy][1,3]thiazolo[4,5-c]pyridine] it is 1870 nM.
Regarding `O=C1CCCN1C1CCN(Cc2ccc(Oc3nc4cccnc4s3)cc2)CC1` [Example 112, 1-{1-[4-([1,3]Thiazolo[5,4-b]pyridin-2-yloxy)benzyl]piperidin-4-yl}pyrrolidin-2-one], the IC50 came out at 370 nM.
For `c1cnc2sc(Oc3ccc(OCCN4CCOCC4)cc3)nc2n1` [Example 150, 2-[4-(2-Morpholin-4-ylethoxy)phenoxy][1,3]thiazolo[4,5-b]pyrazine], the half-inhibitory concentration (IC50) turned out to be 602 nM.
The figure for `CC(C)(CO)NC(=O)C1CCN(CCOc2ccc(Oc3nc4cnccc4s3)cc2)CC1` [Example 161, N-(2-Hydroxy-1,1-dimethylethyl)-1-(2-{[4-([1,3]thiazolo[4,5-c]pyridin-2-yloxy)phenyl]oxy}ethyl)piperidine-4-carboxamide] is 535 nM; for `CN(C)C1CCN(Cc2ccc(Oc3nc4ncccc4s3)cc2)CC1` [Example 259, N,N-Dimethyl-1-[4-([1,3]thiazolo[4,5-b]pyridin-2-yloxy)benzyl]piperidin-4-amine] it is 140 nM; for `O=C(O)C1CCN(Cc2ccc(Oc3nc4cccnc4s3)cc2)CC1` [Example 132, 1-[4-([1,3]Thiazolo[5,4-b]pyridin-2-yloxy)benzyl]piperidine-4-carboxylic acid] it is 1000 nM.
The figure for `Cc1cnc2nc(Oc3ccc(CN4CCC(NC(=O)c5cccs5)CC4)cc3)sc2c1` [Example 220, N-(1-{4-[(6-Methyl[1,3]thiazolo[4,5-b]pyridin-2-yl)oxy]benzyl}piperidin-4-yl)thiophene-2-carboxamide] is 109 nM; for `O=C1CCCN1C1CCN(CCOc2ccc(Oc3nc4ccncc4s3)cc2)CC1` [Example 144, 1-(1-{2-[4-([1,3]Thiazolo[5,4-c]pyridin-2-yloxy)phenoxy]ethyl}piperidin-4-yl)pyrrolidin-2-one] it is 350 nM.
As for `O=C(NC1CCN(CCc2ccc(Oc3nc4ccncc4s3)cc2)CC1)C1CC1` [Example 192, N-(1-{2-[4-([1,3]Thiazolo[5,4-c]pyridin-2-yloxy)phenyl]ethyl}piperidin-4-yl)cyclopropanecarboxamide], the figure is 507 nM.
Turning to `OC1(c2ccc(Cl)cc2)CCN(CCOc2ccc(Oc3nc4nccnc4s3)cc2)CC1` [Example 25, 4-(4-Chlorophenyl)-1-{2-[4-([1,3]thiazolo[4,5-b]pyrazin-2-yloxy)phenoxy]ethyl}piperidin-4-ol], the IC50 was determined as 160 nM.
The figure for `FC(F)(F)C1CCN(CCOc2ccc(Oc3nc4cnccc4s3)cc2)CC1` [Example 164, 2-{[4-({2-[4-(Trifluoromethyl)piperidin-1-yl]ethyl}oxy)phenyl]oxy}[1,3]thiazolo[4,5-c]pyridine] is 45 nM; for `COCC(=O)NC1CCN(Cc2ccc(Oc3nc4ncc(C)cc4s3)cc2)CC1` [Example 216, 2-Methoxy-N-(1-{4-[(6-methyl[1,3]thiazolo[4,5-b]pyridin-2-yl)oxy]benzyl}piperidin-4-yl)acetamide] it is 60 nM.
The figure for `NC(=O)C1CCN(Cc2ccc(Oc3nc4cccnc4s3)cc2)CC1` [Example 113, 1-[4-([1,3]Thiazolo[5,4-b]pyridin-2-yloxy)benzyl]piperidine-4-carboxamide] is 570 nM.
As for `Cc1ccnc2nc(Oc3ccc(CN4[C@@H]5CC[C@H]4CN(S(C)(=O)=O)C5)cc3)sc12` [Example 205, meso-7-Methyl-2-(4-{[3-(methylsulfonyl)-3,8-diazabicyclo[3.2.1]oct-8-yl]methyl}phenoxy)[1,3]thiazolo[4,5-b]pyridine], the figure is 49 nM; as for `OC1(c2ccc(Cl)cc2)CCN(CCOc2ccc(Oc3nc4cccnc4s3)cc2)CC1` [Example 39, 4-(4-Chlorophenyl)-1-{2-[4-([1,3]thiazolo[5,4-b]pyridin-2-yloxy)phenoxy]ethyl}piperidin-4-ol], 260 nM; as for `CC(=O)N1CC(CN(C)Cc2ccc(Oc3nc4ncc(Cl)cc4s3)cc2)C1` [Example 247, 1-(1-Acetylazetidin-3-yl)-N-{4-[(6-chloro[1,3]thiazolo[4,5-b]pyridin-2-yl)oxy]benzyl}-N-methylmethanamine], 33 nM.
`CCCN(CCC)CCc1ccc(Oc2nc3cnccc3s2)cc1` [Example 196, N-Propyl-N-{2-[4-([1,3]thiazolo[4,5-c]pyridin-2-yloxy)phenyl]ethyl}propan-1-amine]: the 50% inhibitory concentration (IC50) is 87 nM.
The figure for `O=C(C1CC1)N1CCN(CCc2ccc(Oc3nc4ncc(Cl)cc4s3)cc2)CC1` [Example 197, 6-Chloro-2-[(4-{2-[4-(cyclopropylcarbonyl)piperazin-1-yl]ethyl}phenyl)oxy][1,3]thiazolo[4,5-b]pyridine] is 360 nM.
In the case of `CC(=O)N1CCCN(Cc2ccc(Oc3nc4ccncc4s3)cc2)CC1` [Example 226, 2-{4-[(4-Acetyl-1,4-diazepan-1-yl)methyl]phenoxy}[1,3]thiazolo[5,4-c]pyridine], the half-maximal inhibitory concentration (IC50) was found to be 1210 nM.
As for `CN1CCN(Cc2ccc(Oc3nc4cccnc4s3)cc2)CCC1=O` [Example 207, 4-Methyl-1-[4-([1,3]thiazolo[5,4-b]pyridin-2-yloxy)benzyl]-1,4-diazepan-5-one], the figure is 1840 nM.
